{"source": "paper PMC7915588", "about": "“Polyphyllin D Shows Anticancer Effect through a Selective Inhibition of Src Homology Region 2-Containing Protein Tyrosine Phosphatase-2 (SHP2)” (Molecules, 2021)", "key": {"PTPN1 (PTP1B)": {"target": "T1, PTPN1 (PTP1B) (Homo sapiens, UniProt P18031)", "T1 construct": "1-299", "T1 sequence (P18031 1-435)": "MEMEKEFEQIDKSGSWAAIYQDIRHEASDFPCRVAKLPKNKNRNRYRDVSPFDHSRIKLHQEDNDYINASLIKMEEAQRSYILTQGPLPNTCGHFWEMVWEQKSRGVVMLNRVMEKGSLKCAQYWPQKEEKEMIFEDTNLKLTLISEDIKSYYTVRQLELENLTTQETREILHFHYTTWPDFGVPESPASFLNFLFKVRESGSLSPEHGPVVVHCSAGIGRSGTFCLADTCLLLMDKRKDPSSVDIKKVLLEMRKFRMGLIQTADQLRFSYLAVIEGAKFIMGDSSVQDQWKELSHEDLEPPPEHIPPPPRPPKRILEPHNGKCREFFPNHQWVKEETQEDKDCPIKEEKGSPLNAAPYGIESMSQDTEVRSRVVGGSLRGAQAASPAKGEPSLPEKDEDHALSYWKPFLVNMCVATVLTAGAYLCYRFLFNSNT", "test": "biochemical", "set-up": "Fluorogenic phosphatase assay, DiFMUP hydrolysis by recombinant PTPs, initial velocity, Ex/Em 355/460 nm", "settings": "read-out: Inhibition by 20 µM polyphyllin D (%)", "protocol": "(§1) Enzymatic reactions were initiated by the addition of SHP2 (final concentration of 10 nM) to a solution of each of the 658 phytochemical compounds (final concentration of 20 µM) in reaction buffer (20 mM bis-tris pH 6.0, 150 mM NaCl, 2.5 mM dithiothreitol, and 0.01% Triton X-100) containing DiFMUP (final concentration of 140 µM). Changes in the fluorescence intensities were measured continuously for 10 min at Ex/Em = 355/460 nm on a VictorTM X4 multilabel plate reader. Enzyme inhibition was estimated by comparing the reaction velocity in the presence of each compound with that in the absence of any compound. Inhibition of the other PTPs was measured in the same way. Next, we established a screening strategy using a DiFMUP substrate to identify a natural product that inhibits SHP2 activity. Initially, we screened 658 compounds at 20 µM using a 96-well plate system (Figure 2A). […] The selected compounds were tested at 20 µM for SHP2 inhibition, and 14 additional non-receptor-type PTPs (PTP1B, TCPTP, PTPH1, STEP, SHP1, HePTP, PTP-MEG2, PTP-PEST, PTP-BAS, PTP36, PTP-HSCF, PTPD1, LYP, and HD-PTP) were used to investigate the inhibition selectivity. The results were visualized using a heat map analysis by GraphPad Prism (Figure 2B and Table S2 in Supplementary Materials). To identify new SHP2 anticancer natural products, we first performed cloning to express SHP2 protein and then purified it. PTPN11 (Gene ID: 5781) encoding human SHP2 (amino acids sequences 1 to 526) with several extra amino acids were cloned into the MBP-pET 28a (+) vector, which was successfully used to overexpress PTPs with enhanced solubility in an Escherichia coli expression system. Information on amino acids for 15 non-receptor-type PTPs including SHP2 is summarized in Table S3 in the Supplementary Materials. SHP2 was overexpressed in RosettaTM (DE3) and purified using a metal affinity resin (Figure S1 in Supplementary Materials). […] The kcat, KM, and kcat/KM values were determined to be 270 min^−1, 70 μM, and 3.9 μM^−1min^−1, respectively, using the Lineweaver–Burk plot analysis (Table S1 in Supplementary Materials)."}, "PTPN12 (PTP-PEST)": {"target": "T2, PTPN12 (PTP-PEST) (Homo sapiens, UniProt Q05209)", "T2 construct": "1-334", "T2 sequence (Q05209 1-780)": "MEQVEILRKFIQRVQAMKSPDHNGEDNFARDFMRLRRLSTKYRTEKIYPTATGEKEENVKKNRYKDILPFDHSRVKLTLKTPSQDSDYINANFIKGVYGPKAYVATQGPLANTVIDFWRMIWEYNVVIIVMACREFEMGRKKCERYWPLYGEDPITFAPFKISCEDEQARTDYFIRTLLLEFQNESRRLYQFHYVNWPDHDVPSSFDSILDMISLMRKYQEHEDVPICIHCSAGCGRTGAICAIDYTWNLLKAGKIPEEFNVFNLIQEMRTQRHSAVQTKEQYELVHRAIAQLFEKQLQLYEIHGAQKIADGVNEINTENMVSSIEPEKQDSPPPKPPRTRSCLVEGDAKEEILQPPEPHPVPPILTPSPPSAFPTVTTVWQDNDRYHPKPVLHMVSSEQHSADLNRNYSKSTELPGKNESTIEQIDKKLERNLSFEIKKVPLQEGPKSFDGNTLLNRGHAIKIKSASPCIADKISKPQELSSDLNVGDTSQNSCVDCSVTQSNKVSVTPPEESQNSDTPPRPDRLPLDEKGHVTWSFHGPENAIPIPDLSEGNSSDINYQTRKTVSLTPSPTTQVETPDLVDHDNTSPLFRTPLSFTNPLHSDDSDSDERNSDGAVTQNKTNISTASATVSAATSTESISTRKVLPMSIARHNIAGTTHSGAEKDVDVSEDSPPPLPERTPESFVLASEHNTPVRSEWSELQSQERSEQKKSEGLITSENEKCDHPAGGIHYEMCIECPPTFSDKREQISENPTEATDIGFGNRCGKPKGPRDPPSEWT", "test": "biochemical", "set-up": "Fluorogenic phosphatase assay, DiFMUP hydrolysis by recombinant PTPs, initial velocity, Ex/Em 355/460 nm", "settings": "read-out: Inhibition by 20 µM polyphyllin D (%)", "protocol": "as §1"}}, "data": [{"compound": "C[C@@H]1CC[C@@]2(OC1)O[C@H]1C[C@H]3[C@@H]4CC=C5C[C@@H](O[C@@H]6O[C@H](CO)[C@@H](O[C@@H]7O[C@@H](CO)[C@H](O)[C@H]7O)[C@H](O)[C@H]6O[C@@H]6O[C@@H](C)[C@H](O)[C@@H](O)[C@H]6O)CC[C@]5(C)[C@H]4CC[C@]3(C)[C@H]1[C@@H]2C", "note": "[polyphyllin D]", "values": [{"measurement": "inhibition at 20 µM", "setting": "PTPN1 (PTP1B)", "value": 0, "unit": "%"}, {"measurement": "inhibition at 20 µM", "setting": "PTPN12 (PTP-PEST)", "value": 29.9, "unit": "%"}]}]}
